{"source": "patent US11685710B2", "about": "“Cationic sulfonamide amino lipids and amphiphilic zwitterionic amino lipids” (The Board of Regents of the University of Texas System, priority 2016, dated 2023)", "key": {"[1]": {"assay": "Nanoparticle size by dynamic light scattering", "type": "physicochemical", "settings": "Luc mRNA NPs, varied PEG-lipid", "protocol": "(§1) Nanoparticle property characterization: Physical properties were measured using a Zetasizer Nano ZS (Malvern) with an He—Ne laser (λ=632 nm). Particle sizes were measured by dynamic light scattering (DLS) (5 measurements, 3 runs×10 seconds, automatic attenuator setting) by 173° back scattering. Zeta potential was measured in a folded capillary cell (Malvern) with samples diluted in PBS for ZAL NPs or citrate phosphate buffer pH 7.4 for CSAL NPs.\nas §1, with “Physical” for “Nanoparticle property characterization: Physical”"}, "HeLa-Luc-Cas9 cells [2]": {"test_system": "HeLa-Luc-Cas9 cells", "assay": "sgRNA delivery to HeLa-Luc-Cas9 cells (luciferase editing, ONE-Glo+Tox)", "type": "cell-based", "protocol": "sgRNA delivery to HeLa-Luc-Cas9 cells: Select ZALs were evaluated in the delivery of single guide RNA (sgRNA) to HeLa-Luc-Cas9 cells. In a white opaque 96-well plate tissue culture plate, HeLa-Luc-Cas9 cells were seeded at a density of 5×10^3 cells per well in 100 μL growth medium (DMEM without phenol red, 5% FBS), and allowed to attach overnight and then supplemented with an additional 100 μL DMEM. ZALs-sgRNA nanoparticles were formulated using the in vitro nanoparticle formulation protocol at the indicated lipid composition and weight ratio (maintaining 50:38.5 ZAL:cholesterol mole ratio, tuningPEG-lipid additive from 5% to 0.5%, and tuning weight ratio from 20:1 ZAL:sgRNA to 5:1 ZAL:sgRNA). Luciferase deletion was evaluated using a single guide RNA designed against luciferase using the CRISPR.mit.edu algorithm, while non-targeting control sgRNA (sgScr) was used as a negative control. The nanoparticles were added to the cells at a dose of 50 ng sgRNA per well and incubated with the cells for 24 h or 48 h. RNAiMax (Invitrogen) formulated according to the manufacturer's protocol with sgLuc or sgScr was used as a positive control. After 24 h or 48 h, the cell viability and luciferase expression were evaluated with the ONE-Glo+Tox Assay cell viability and luciferase assay (Promega).\nSelect ZALs were evaluated in the delivery of single guide RNA (sgRNA) to HeLa-Luc-Cas9 cells. In a white opaque 96-well plate tissue culture plate, HeLa-Luc-Cas9 cells were seeded at a density of 5×10^3 cells per well in 100 μL growth medium (DMEM without phenol red, 5% FBS), and allowed to attach overnight and then supplemented with an additional 100 μL DMEM. ZNPs encapsulating sgRNA were formulated using the in vitro nanoparticle formulation protocol at the indicated lipid composition and weight ratio (maintaining 50:38.5 (ZAL:cholesterol mole ratio), tuning PEG-lipid additive from 5% to 0.5%, and tuning weight ratio from 20:1 ZAL:sgRNA to 5:1 ZAL:sgRNA). Non-targeting control sgRNA (sgCtrl) was used as a negative control. The nanoparticles were added to the cells at the appropriate dose of sgRNA and incubated with the cells for 48 h. The cell viability and luciferase expression were evaluated with the ONE-Glo+Tox Assay (Promega), normalized to untreated cells (N=4+/−standard deviation)."}, "HeLa-Luc-Cas9 cells [3]": {"test_system": "HeLa-Luc-Cas9 cells", "assay": "Kinetic assay of sgRNA and siRNA delivery (luciferase expression over time)", "type": "cell-based", "protocol": "The kinetics of luciferase expression after silencing/editing by siRNA and sgRNA were determined in HeLa-Luc-Cas9 cells. For time points <48 h, ZNPs encapsulating sgRNA or siRNA were delivered to HeLa-Luc-Cas9 cells in 96-well plates at a density of 5K cells per well. After 0.5, 1, 2, 4, 11, 20, 30 and 44 h time point, the cell viability and luciferase expression were determined by the One-Glow+Tox assay. For longer time points, cells were treated in 6-well plates. Beginning at the 2 day time point, cells were aspirated, washed with 1×PBS, trypsinized in 200 μL trypsin and re-suspended in 1800 μL medium. 1 mL of each cell suspension was added to a fresh 6-well plate containing 1 mL DMEM (2 mL total) and returned to the incubator. Of the remaining cell suspension, 50 μL was transferred to a 96-well white-opaque plate (10 wells per sample). Cell viability was determined using the Cell-Titer Glo assay normalized to untreated cells, while relative luciferase expression was determined using the One-Glo assay and normalized against control (siCtrl or sgCtrl). Data was plotted as an average of 5 measurements+/−standard deviation."}, "[4]": {"test_system": "Lox-Stop-Lox tdTomato (tdTO) cassette", "assay": "In vivo delivery of Cas9 mRNA and sgLoxP (tdTomato activation)", "set-up": "species or system mice", "settings": "5 mg/kg", "protocol": "ZA3-Ep10 ZNPs encapsulating Cas9 mRNA and sgLoxp were prepared according to the in vivo nanoparticle formulation protocol using the Nanoassemblr microfluidic mixing device. The lipid mix contained 50 ZA3-Ep10:38.5 cholesterol:0.5 PEG-lipid molar ratios, and the particles were formulated at a 7.5:1 ZAL:total RNA weight ratio. The Cas9 mRNA:sgLoxP weight ratio was maintained at 4:1. […] After which they were sacrificed and the major organs imaged using the IVIS Lumina system for fluorescence expression (dsRed filter set) compared to an uninjected Rosa 26-LSL-tdTomato mouse. A liver specific Cre recombinase adeno-associated virus (Cre-AAV8) injected intravenously via tail vein injection (4 days) was used as a positive control.\nTissue were fixed in 4% paraformaldehyde (PFA) at RT for 2 hours, then changed in 30% sucrose (in PBS) at 4° C. overnight. Then the tissues were embedded in Cryo-gel (Leica Biosystems), and frozen in dry ice. The blocks were sectioned using Cryostat machine (Leica Biosystems) at 8 μm thickness. […]\nFor detection of Tomato positive populations, primary hepatocytes (2×10^6/mL) were isolated and stained with DAPI (Roche, 2 μg/mL) for dead cell exclusion. Cells were analyzed with BD FACSAria Fusion machine (BD Biosciences). Tomato positive cells were counted in DAPI negative (live cell) populations."}, "[5]": {"settings": "PEG 2%, 1%, 0.5%, ZAL:sgRNA 20:1, 10:1, 7.5:1, 5:1, 7.4 nM, 48 h"}}, "note": "“Also recorded” adds a separate entry of the source.", "data": [{"compound": "CCCCCCCCC(O)CN(CCC(=O)NCC[N+](C)(C)CCCS(=O)(=O)[O-])CCN(CCN(CC(O)CCCCCCCC)CC(O)CCCCCCCC)CCN(CC(O)CCCCCCCC)CC(O)CCCCCCCC", "note": "(centres unmarked) [ZA3-Ep10]", "values": [{"measurement": "change in ZNP size versus PEG lipid ratio", "setting": "[1]", "value": "modest change"}, {"measurement": "formulation with the best luciferase editing", "setting": "HeLa-Luc-Cas9 cells [2]; [5]", "value": "7.5:1 weight ratio and 0.5% PEG"}, {"measurement": "sgLuc delivery by formulations with tuned PEG content and weight ratio", "setting": "HeLa-Luc-Cas9 cells [2]; [5]", "value": "potent"}, {"measurement": "sgRNA (sgLuc) delivery, rank among lead ZALs", "setting": "HeLa-Luc-Cas9 cells [2]; lead ZALs from the siRNA screen, HeLa-Luc-Cas9 cells, 48 h", "value": "most highly potent; also recorded: efficacious"}, {"measurement": "luciferase expression versus sgRNA dose", "setting": "HeLa-Luc-Cas9 cells [2]; sgLuc ZNPs, HeLa-Luc-Cas9 cells", "value": "dose-dependent decrease"}, {"measurement": "luciferase silencing", "setting": "HeLa-Luc-Cas9 cells [2]; sgRNA at 14.7 nM and 7.4 nM, 48 h, ZNPs 50:38.5:1 ZAL:cholesterol:PEG-lipid, 20:1 ZAL:sgRNA weight ratio", "value": "> 95", "unit": "%"}, {"measurement": "decrease of luciferase expression", "setting": "HeLa-Luc-Cas9 cells [3]; sgLuc, 20 h", "value": 40, "unit": "%"}, {"measurement": "decrease of luciferase expression", "setting": "HeLa-Luc-Cas9 cells [3]; sgLuc, after 2 days", "value": 95, "unit": "%"}, {"measurement": "remaining luciferase expression", "setting": "HeLa-Luc-Cas9 cells [3]; sgLuc, persisted throughout the assay (9 days)", "value": 5, "unit": "%"}, {"measurement": "time luciferase remained low", "setting": "HeLa-Luc-Cas9 cells [3]; siLuc", "value": "about 3 days"}, {"measurement": "time until protein expression reached baseline level", "setting": "HeLa-Luc-Cas9 cells [3]; siLuc, after transfection", "value": 6, "unit": "days"}, {"measurement": "luciferase silenced", "setting": "HeLa-Luc-Cas9 cells [3]; siLuc, by 20 h", "value": 92, "unit": "%"}, {"measurement": "decrease of luciferase expression", "setting": "HeLa-Luc-Cas9 cells [3]; siLuc, within the first 4 h", "value": 40, "unit": "%"}, {"measurement": "fluorescent signal 2 months after treatment", "setting": "[4]", "value": "significant fluorescent signal in the liver and kidneys"}]}]}
